# Test results as given in patent publication US11364248B2 (AMGEN INC., priority 2017, dated 2022).
# System: OPM-2
# Assay: Cell Viability Assay (OPM-2 10 FBS)
# Type: cell-based, human
# Conditions: OPM-2 cells, 16 h, CellTiter-Glo, read-out: OPM-2 10% FBS IC50 IP
# Experimental: Cell Viability Assay (OPM-2 10 FBS)
# The human multiple myeloma cell line, OPM-2, was cultured in complete growth medium containing RPMI 1640 and 10% fetal bovine serum (FBS). Cells were seeded into 384-well plates at 3000 cells/well density in complete growth medium containing 10% FBS, and incubated for 16 h with serially diluted test compounds in a 37° C. incubator with 5% CO2. Cell viability was tested using CellTiter-Glo® assay (Promega, Madison, Wis.) according to the manufacturer recommendations. Luminescence was determined using an EnVision® Multilabel plate reader 25 min after the addition of detection reagent. IC50 values were then calculated with Xlfit using a logistical 4-parameter fit model in GraphPad Prism (GraphPad Software, San Diego, Calif.) or in Genedata Screener® (Genedata, Basel, Switzerland).
row,Compound,IC50 [nM]
1,"COC1CN([C@H]2CO[C@@H]([C@H]3CCC[C@H](C)[C@@H](C)S(=O)(=O)NC(=O)c4ccc5c(c4)N(C[C@@H]4CC[C@H]43)C[C@@]3(CCCc4cc(Cl)ccc43)CO5)OC2)C1 [Example 52, (1S,3′R,6′R,7′S,11′S,12′R)-6-chloro-7′-(cis-5-(3-methoxy-1-azetidinyl)-1,3-dioxan-2-yl)-11′,12′-dimethyl-3,4-dihydro-2H,15′H-spiro[naphthalene-1,22′-[20]oxa[13]thia[1,14]diazatetracyclo [14.7.2.0~3,6~.0~19,24~]pentacosa[16,18,24]trien]-15′-one 13′,13′-dioxide]",59
2,"COC1CN([C@H]2CO[C@@H]([C@H]3CCC[C@H](C)[C@@H](C)S(=O)(=O)NC(=O)c4ccc5c(c4)N(C[C@@H]4CC[C@H]43)C[C@@]3(CCCc4cc(Cl)ccc43)CO5)OC2)C1 [Example 53, (1S,3′R,6′R,7′S,11′S,12′R)-6-chloro-7′-(cis-5-(3-methoxy-1-azetidinyl)-1,3-dioxan-2-yl)-11′,12′-dimethyl-3,4-dihydro-2H,15′H-spiro[naphthalene-1,22′-[20]oxa[13]thia[1,14]diazatetracyclo [14.7.2.0~3,6~.0~19,24~]pentacosa[16,18,24]trien]-15′-one 13′,13′-dioxide]",184
3,"COC1CN([C@H]2CO[C@@H]([C@H]3CCC[C@H](C)[C@@H](C)S(=O)(=O)NC(=O)c4ccc5c(c4)N(C[C@@H]4CC[C@H]43)C[C@@]3(CCCc4cc(Cl)ccc43)CO5)OC2)C1 [Example 54, (1S,3′R,6′R,7′S,11′S,12′R)-6-chloro-7′-(cis-5-(3-methoxy-1-azetidinyl)-1,3-dioxan-2-yl)-11′,12′-dimethyl-3,4-dihydro-2H,15′H-spiro[naphthalene-1,22′-[20]oxa[13]thia[1,14]diazatetracyclo [14.7.2.0~3,6~.0~19,24~]pentacosa[16,18,24]trien]-15′-one 13′,13′-dioxide]",547
4,"CCN(CC)[C@H]1CO[C@@H]([C@H]2CCC[C@H](C)[C@@H](C)S(=O)(=O)NC(=O)c3ccc4c(c3)N(C[C@@H]3CC[C@H]32)C[C@@]2(CCCc3cc(Cl)ccc32)CO4)OC1 [Example 57, (1S,3′R,6′R,7′S,11′S,12′R)-6-chloro-7′-(cis-5-(diethylamino)-1,3-dioxan-2-yl)-11′,12′-dimethyl-3,4-dihydro-2H,15′H-spiro[naphthalene-1,22′-[20]oxa[13]thia[1,14]diazatetracyclo [14.7.2.0~3,6~.0~19,24~]pentacosa[16,18,24]trien]-15′-one 13′,13′-dioxide]",164
5,"CCN(CC)[C@H]1CO[C@@H]([C@H]2CCC[C@H](C)[C@@H](C)S(=O)(=O)NC(=O)c3ccc4c(c3)N(C[C@@H]3CC[C@H]32)C[C@@]2(CCCc3cc(Cl)ccc32)CO4)OC1 [Example 58, (1S,3′R,6′R,7′S,11′S,12′R)-6-chloro-7′-(cis-5-(diethylamino)-1,3-dioxan-2-yl)-11′,12′-dimethyl-3,4-dihydro-2H,15′H-spiro[naphthalene-1,22′-[20]oxa[13]thia[1,14]diazatetracyclo [14.7.2.0~3,6~.0~19,24~]pentacosa[16,18,24]trien]-15′-one 13′,13′-dioxide]",512
6,"C[C@@H]1[C@@H](C)CCC[C@H]([C@H]2OC[C@@H](N3CC(N(C)C)C3)CO2)[C@@H]2CC[C@H]2CN2C[C@@]3(CCCc4cc(Cl)ccc43)COc3ccc(cc32)C(=O)NS1(=O)=O [Example 67, (1S,3′R,6′R,7′S,11′S,12′R)-6-chloro-7′-(cis-5-(3-(dimethylamino)-1-azetidinyl)-1,3-dioxan-2-yl)-11′,12′-dimethyl-3,4-dihydro-2H,15′H-spiro[naphthalene-1,22′-[20]oxa[13]thia[1,14]diazatetracyclo [14.7.2.0~3,6~.0~19,24~]pentacosa[16,18,24]trien]-15′-one 13′,13′-dioxide]",220
7,"C[C@@H]1[C@@H](C)CCC[C@H]([C@H]2OC[C@@H](N3CC(N(C)C)C3)CO2)[C@@H]2CC[C@H]2CN2C[C@@]3(CCCc4cc(Cl)ccc43)COc3ccc(cc32)C(=O)NS1(=O)=O [Example 68, (1S,3′R,6′R,7′S,11′S,12′R)-6-chloro-7′-(cis-5-(3-(dimethylamino)-1-azetidinyl)-1,3-dioxan-2-yl)-11′,12′-dimethyl-3,4-dihydro-2H,15′H-spiro[naphthalene-1,22′-[20]oxa[13]thia[1,14]diazatetracyclo [14.7.2.0~3,6~.0~19,24~]pentacosa[16,18,24]trien]-15′-one 13′,13′-dioxide]",517
8,"COCC[C@@H]1[C@@H](C)CCC[C@H]([C@H]2OC[C@@H](N(C)C)CO2)[C@@H]2CC[C@H]2CN2C[C@@]3(CCCc4cc(Cl)ccc43)COc3ccc(cc32)C(=O)NS1(=O)=O [Example 82, (1S,3′R,6′R,7′S,11′S,12′R)-6-chloro-7′-(cis-5-(dimethylamino)-1,3-dioxan-2-yl)-12′-(2-methoxyethyl)-11′-methyl-3,4-dihydro-2H,15′H-spiro[naphthalene-1,22′-[20]oxa[13]thia[1,14]diazatetracyclo [14.7.2.0~3,6~.0~19,24~]pentacosa[16,18,24]trien]-15′-one 13′,13′-dioxide]",33
9,"C[C@@H]1CS(=O)(=O)NC(=O)c2ccc3c(c2)N(C[C@@H]2CC[C@H]2[C@@H]([C@H]2OC[C@@H](N(C)C)CO2)CC[C@@H]1C)C[C@@]1(CCCc2cc(Cl)ccc21)CO3 [Example 84, (1S,3′R,6′R,7′S,10′S,11′S)-6-chloro-7′-(cis-5-(dimethylamino)-1,3-dioxan-2-yl)-10′,11′-dimethyl-3,4-dihydro-2H,15′H-spiro[naphthalene-1,22′-[20]oxa[13]thia[1,14]diazatetracyclo [14.7.2.0~3,6~.0~19,24~]pentacosa[16,18,24]trien]-15′-one 13′,13′-dioxide]",145
10,"C[C@@H]1CS(=O)(=O)NC(=O)c2ccc3c(c2)N(C[C@@H]2CC[C@H]2[C@@H]([C@H]2OC[C@@H](N(C)C)CO2)CC[C@@H]1C)C[C@@]1(CCCc2cc(Cl)ccc21)CO3 [Example 85, (1S,3′R,6′R,7′S,10′S,11′S)-6-chloro-7′-(cis-5-(dimethylamino)-1,3-dioxan-2-yl)-10′,11′-dimethyl-3,4-dihydro-2H,15′H-spiro[naphthalene-1,22′-[20]oxa[13]thia[1,14]diazatetracyclo [14.7.2.0~3,6~.0~19,24~]pentacosa[16,18,24]trien]-15′-one 13′,13′-dioxide]",1090
11,"COC[C@@H]1[C@@H](C)CCC[C@H]([C@H]2OC[C@@H](N(C)C)CO2)[C@@H]2CC[C@H]2CN2C[C@@]3(CCCc4cc(Cl)ccc43)COc3ccc(cc32)C(=O)NS1(=O)=O [Example 91, (1S,3′R,6′R,7′S,11′S,12′S)-6-chloro-7′-(cis-5-(dimethylamino)-1,3-dioxan-2-yl)-12′-(methoxymethyl)-11′-methyl-3,4-dihydro-2H,15′H-spiro[naphthalene-1,22′-[20]oxa[13]thia[1,14]diazatetracyclo [14.7.2.0~3,6~.0~19,24~]pentacosa[16,18,24]trien]-15′-one 13′,13′-dioxide]",47
